As usually defined, the IC50 is the midpoint of a concentration-inhibition curve.

The values that follow come from ChEMBL document CHEMBL1909046, “DrugMatrix in vitro pharmacology data”.

The target of experiment [1] is T1, Muscarinic acetylcholine receptor M2 (Homo sapiens, UniProt P08172). Also: in other assays of this panel Not Active means under 50% inhibition at 10 µM.
T1 sequence (P08172 whole entry): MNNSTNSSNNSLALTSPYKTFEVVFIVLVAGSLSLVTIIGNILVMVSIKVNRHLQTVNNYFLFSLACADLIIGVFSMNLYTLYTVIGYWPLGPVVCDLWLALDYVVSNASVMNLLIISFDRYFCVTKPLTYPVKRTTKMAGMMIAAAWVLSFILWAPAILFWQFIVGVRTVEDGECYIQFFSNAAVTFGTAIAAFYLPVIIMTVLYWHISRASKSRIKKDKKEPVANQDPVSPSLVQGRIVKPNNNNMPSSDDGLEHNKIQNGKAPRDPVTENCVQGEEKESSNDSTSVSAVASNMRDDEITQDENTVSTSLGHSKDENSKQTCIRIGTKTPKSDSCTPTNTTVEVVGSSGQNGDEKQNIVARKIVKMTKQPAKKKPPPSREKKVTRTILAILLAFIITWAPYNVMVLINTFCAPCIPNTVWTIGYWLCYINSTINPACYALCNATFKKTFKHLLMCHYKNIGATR
Type of experiment: cell membranes, CHO-K1, Membrane. Conditions: cho-k1.

Experiment [2] addresses C-C chemokine receptor type 2 (Homo sapiens, UniProt P41597). Type of experiment: cell membranes, CHO-K1, Membrane. Conditions: cho-k1.
Experiment [3] deals with Carbonic anhydrase 2 (Homo sapiens, UniProt P00918). Nature of the experiment: DRUGMATRIX: Carbonic Anhydrase II enzyme inhibition (substrate: 4-Nitrophenyl acetate (4-NPA)). Type of experiment: tissue-based, Erythrocyte. To be noted: erythrocyte; Not Active = under 50% inhibition at 10 µM.
For experiment [4], the target named is 5-hydroxytryptamine receptor 4 (Cavia porcellus, UniProt O70528). Type of experiment: cell membranes, Dunkin-Hartley, Striatum, Membrane. Also: in other assays of this panel Not Active means under 50% inhibition at 10 µM.
Experiment [5] is described as follows: DRUGMATRIX: Interleukin IL-1 radioligand binding (ligand: [125I] interleukin 1beta). Type of experiment: cell membranes, Membrane. Conditions: nih3t3; Not Active = under 50% inhibition at 10 µM.
Experiment [6] is described as follows: DRUGMATRIX: Phosphodiesterase PDE3 enzyme inhibition (substrate: [3H]cAMP + cAMP). Type of experiment: tissue-based, Homo sapiens. To be noted: platelet; Not Active = under 50% inhibition at 10 µM.
Experiment [7] addresses Tyrosine-protein kinase Lck (Homo sapiens, UniProt P06239). In words: DRUGMATRIX: Protein Tyrosine Kinase, LCK enzyme inhibition (substrate: Poly(Glu:Tyr)). Type of experiment: cell-based, Insect cells. To be noted: Not Active = under 50% inhibition at 10 µM.
Experiment [8] concerns the target T2, Amine oxidase [flavin-containing] A (Homo sapiens, UniProt P21397).
T2 sequence (P21397 whole entry): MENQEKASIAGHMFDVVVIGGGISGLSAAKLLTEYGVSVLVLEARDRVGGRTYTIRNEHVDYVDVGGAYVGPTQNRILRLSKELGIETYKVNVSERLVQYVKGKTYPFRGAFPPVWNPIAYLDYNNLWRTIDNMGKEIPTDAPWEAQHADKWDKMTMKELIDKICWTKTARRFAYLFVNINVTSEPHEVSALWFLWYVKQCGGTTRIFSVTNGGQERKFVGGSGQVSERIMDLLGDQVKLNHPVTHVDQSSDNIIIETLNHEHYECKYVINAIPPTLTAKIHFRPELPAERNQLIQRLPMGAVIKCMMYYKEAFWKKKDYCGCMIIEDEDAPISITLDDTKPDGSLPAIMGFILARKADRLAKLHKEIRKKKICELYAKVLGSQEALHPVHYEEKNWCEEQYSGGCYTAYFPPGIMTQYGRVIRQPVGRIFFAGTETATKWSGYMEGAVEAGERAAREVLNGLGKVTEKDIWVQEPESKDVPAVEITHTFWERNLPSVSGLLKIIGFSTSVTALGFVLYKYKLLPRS
Nature of the experiment: DRUGMATRIX: Monoamine Oxidase MAO-A enzyme inhibition (substrate: Kynuramine). Set-up: species or system BTI-TN-5B1-4. To be noted: bti-tn-5b1-4; Not Active = under 50% inhibition at 10 µM.

Experiment [9] deals with T3, Angiotensin-converting enzyme (Oryctolagus cuniculus, UniProt P12822).
T3 sequence (P12822 whole entry): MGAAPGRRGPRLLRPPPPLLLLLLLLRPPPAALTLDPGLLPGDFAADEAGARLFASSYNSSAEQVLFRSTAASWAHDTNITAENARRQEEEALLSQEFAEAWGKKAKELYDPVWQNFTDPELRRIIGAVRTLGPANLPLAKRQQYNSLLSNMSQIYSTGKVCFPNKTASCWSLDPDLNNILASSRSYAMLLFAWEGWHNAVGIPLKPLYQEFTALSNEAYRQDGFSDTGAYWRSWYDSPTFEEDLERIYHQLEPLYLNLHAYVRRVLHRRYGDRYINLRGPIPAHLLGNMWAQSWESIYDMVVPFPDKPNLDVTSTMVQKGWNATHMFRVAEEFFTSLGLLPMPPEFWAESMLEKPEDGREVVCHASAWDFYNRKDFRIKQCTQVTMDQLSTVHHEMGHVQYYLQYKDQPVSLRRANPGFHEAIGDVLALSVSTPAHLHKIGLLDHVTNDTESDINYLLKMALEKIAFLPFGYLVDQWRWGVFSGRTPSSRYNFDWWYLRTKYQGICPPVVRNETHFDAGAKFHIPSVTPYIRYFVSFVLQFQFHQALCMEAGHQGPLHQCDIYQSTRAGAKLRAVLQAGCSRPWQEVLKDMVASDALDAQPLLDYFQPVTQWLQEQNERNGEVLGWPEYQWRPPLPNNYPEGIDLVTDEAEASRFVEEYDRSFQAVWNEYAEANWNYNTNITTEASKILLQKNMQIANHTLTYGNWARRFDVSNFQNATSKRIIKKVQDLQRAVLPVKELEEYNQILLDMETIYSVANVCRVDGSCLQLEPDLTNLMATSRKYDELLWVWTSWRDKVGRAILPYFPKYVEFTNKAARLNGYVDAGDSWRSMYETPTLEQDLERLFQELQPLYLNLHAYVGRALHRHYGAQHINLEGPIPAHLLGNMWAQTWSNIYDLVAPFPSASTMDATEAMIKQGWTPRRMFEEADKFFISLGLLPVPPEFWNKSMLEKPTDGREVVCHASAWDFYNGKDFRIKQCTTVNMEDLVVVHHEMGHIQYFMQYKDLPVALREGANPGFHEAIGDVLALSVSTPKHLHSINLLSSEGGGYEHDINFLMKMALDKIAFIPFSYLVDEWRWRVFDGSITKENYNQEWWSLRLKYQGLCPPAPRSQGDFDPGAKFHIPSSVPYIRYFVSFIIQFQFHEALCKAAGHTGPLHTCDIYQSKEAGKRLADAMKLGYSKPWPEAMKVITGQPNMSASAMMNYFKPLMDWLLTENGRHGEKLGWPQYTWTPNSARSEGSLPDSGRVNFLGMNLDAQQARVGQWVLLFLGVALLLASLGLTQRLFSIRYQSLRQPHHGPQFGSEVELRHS
In words: biochemical. Type of experiment: tissue-based, Lung.

The target in experiment [10] is Matrix metalloproteinase-9 (Homo sapiens, UniProt P14780). Type of experiment: cell-based.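 Also: inhibition of isolated MMP-9 enzyme activity toward a synthetic peptide substrate, from the DrugMatrix protease screening panel; in other assays of this panel Not Active means under 50% inhibition at 10 µM.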
Chain of Matrix metalloproteinase-9 (P14780 whole entry): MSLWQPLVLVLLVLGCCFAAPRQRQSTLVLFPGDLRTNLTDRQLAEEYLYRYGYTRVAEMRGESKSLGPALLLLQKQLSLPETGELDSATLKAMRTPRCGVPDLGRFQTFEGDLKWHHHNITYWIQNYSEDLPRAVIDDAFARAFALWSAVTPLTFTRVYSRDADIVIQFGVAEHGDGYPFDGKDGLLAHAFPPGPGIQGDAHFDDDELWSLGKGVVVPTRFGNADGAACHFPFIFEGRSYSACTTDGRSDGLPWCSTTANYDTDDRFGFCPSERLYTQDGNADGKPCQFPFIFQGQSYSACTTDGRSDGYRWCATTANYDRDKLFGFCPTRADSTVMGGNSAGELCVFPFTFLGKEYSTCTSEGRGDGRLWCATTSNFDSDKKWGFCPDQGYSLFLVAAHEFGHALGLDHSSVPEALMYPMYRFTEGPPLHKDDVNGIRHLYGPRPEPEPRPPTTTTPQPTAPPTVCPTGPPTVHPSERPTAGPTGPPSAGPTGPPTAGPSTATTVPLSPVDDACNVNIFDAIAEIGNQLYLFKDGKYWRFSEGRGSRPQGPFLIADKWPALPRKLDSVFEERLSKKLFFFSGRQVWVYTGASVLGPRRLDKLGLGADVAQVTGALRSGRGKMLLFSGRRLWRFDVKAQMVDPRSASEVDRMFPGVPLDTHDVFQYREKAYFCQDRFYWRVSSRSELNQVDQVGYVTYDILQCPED

Chain of 5-hydroxytryptamine receptor 4 (O70528 whole entry): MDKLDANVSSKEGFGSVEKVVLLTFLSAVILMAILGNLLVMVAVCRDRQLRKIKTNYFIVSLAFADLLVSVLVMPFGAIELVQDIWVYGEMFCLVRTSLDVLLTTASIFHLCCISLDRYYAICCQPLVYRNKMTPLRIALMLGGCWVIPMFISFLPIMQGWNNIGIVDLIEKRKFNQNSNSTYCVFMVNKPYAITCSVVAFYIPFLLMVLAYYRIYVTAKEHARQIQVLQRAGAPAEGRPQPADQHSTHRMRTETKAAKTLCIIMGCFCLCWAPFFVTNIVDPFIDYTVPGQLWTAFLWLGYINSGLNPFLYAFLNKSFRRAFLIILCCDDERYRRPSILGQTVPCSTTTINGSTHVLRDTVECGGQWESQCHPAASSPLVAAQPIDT
Chain of C-C chemokine receptor type 2 (P41597 whole entry): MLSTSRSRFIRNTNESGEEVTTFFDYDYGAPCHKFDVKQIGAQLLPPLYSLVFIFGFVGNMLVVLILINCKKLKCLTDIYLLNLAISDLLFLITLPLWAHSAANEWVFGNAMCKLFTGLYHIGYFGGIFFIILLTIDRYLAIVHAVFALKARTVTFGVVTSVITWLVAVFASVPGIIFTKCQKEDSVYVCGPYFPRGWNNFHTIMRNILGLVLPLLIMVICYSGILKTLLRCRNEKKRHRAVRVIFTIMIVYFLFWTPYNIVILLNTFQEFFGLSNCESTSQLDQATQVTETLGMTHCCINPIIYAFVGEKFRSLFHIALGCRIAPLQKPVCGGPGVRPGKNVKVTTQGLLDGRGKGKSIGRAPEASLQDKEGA
Chain of Tyrosine-protein kinase Lck (P06239 whole entry): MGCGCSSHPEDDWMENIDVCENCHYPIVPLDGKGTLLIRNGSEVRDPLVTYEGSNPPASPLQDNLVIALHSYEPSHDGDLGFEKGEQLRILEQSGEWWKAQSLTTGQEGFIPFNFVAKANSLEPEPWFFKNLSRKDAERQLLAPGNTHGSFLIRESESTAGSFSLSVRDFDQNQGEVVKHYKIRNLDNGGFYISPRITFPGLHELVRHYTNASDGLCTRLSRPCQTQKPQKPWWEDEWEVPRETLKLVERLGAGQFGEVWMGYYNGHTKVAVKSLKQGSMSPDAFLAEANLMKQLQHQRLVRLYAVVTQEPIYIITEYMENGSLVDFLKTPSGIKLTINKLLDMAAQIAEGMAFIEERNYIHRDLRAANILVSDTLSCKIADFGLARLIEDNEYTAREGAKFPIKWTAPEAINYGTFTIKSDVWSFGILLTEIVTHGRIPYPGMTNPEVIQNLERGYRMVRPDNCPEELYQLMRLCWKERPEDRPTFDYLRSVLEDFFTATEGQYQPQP

With `CO[C@@H]1[C@@H](O[C@@H]2O[C@H](C)[C@@H](O[C@H]3C[C@@](C)(O)[C@@H](OC(=O)CC(C)C)[C@H](C)O3)[C@H](N(C)C)[C@H]2O)[C@@H](CC=O)C[C@@H](C)[C@@H](O)/C=C/C=C/C[C@@H](C)OC(=O)C[C@H]1O` [KITASAMYCIN], the IC50 entry in experiment [1], in experiment [2], in experiment [3], in [4], in experiment [5] and in [6] was “Not Active” throughout. For the same compound, the IC50 result in experiment [7] (insect cells), in experiment [8], in experiment [9] and in [10] was “Not Active” in each case. Also, the Ki result in experiment [5] and in [6] was “Not Active” each time.
In the case of `Oc1c(I)cc(I)c2cccnc12` [IODOQUINOL], the IC50 entry in [1], in experiment [2], in [3], in experiment [4], in [5] and in experiment [6] was “Not Active” each time. Besides, the IC50 was 2460 nM in [7] (read-out: IC50), “Not Active” in [8], 906 nM in experiment [9] (read-out: IC50) and “Not Active” in experiment [10]. In addition, the Ki result in [5] and in experiment [6] was “Not Active” throughout.
Turning to `NC(CO)(CO)CO` [TROMETHAMINE], the IC50 result in experiment [1], in experiment [2], in [3], in [4], in [5] and in [6] was “Not Active” each time. Further, the IC50 result in experiment [7] (insect cells), in experiment [8], in experiment [9] and in experiment [10] was “Not Active” each time. Moreover, the Ki entry in experiment [5] and in experiment [6] was “Not Active” in each case.
As to `O=[N+]([O-])c1cc([As](=O)(O)O)ccc1O` [ROXARSONE], the IC50 entry in experiment [1], in experiment [2], in experiment [3], in experiment [4], in experiment [5] and in experiment [6] was “Not Active” in each case. Moreover, the IC50 result in [7] (insect cells), in experiment [8], in experiment [9] and in [10] was “Not Active” throughout. The Ki entry in experiment [1], in experiment [2], in experiment [3], in experiment [4], in [5] and in [6] was “Not Active” throughout. Besides, the Ki result in experiment [7] (insect cells), in experiment [8], in [9] and in experiment [10] was “Not Active” in each case.
Turning to `Cc1ncc([N+](=O)[O-])n1CC(C)O` (centres undefined) [SECNIDAZOLE], the IC50 result in [1], in experiment [2], in experiment [3], in experiment [4], in [5] and in experiment [6] was “Not Active” in each case. Besides, the IC50 entry in experiment [7] (insect cells), in experiment [8], in [9] and in experiment [10] was “Not Active” each time. Also, the Ki result in [5] and in [6] was “Not Active” in each case.
As for `CC1=C(/C=C/C(C)=C/C=C/C(C)=C\C(=O)O)C(C)(C)CCC1` [ISOTRETINOIN], the IC50 result in [1], in experiment [2], in experiment [3], in experiment [4], in experiment [5] and in [6] was “Not Active” each time. The half-maximal inhibitory concentration (IC50) result in experiment [7] (insect cells), in [8], in experiment [9] and in [10] was “Not Active” each time. Moreover, the Ki entry in [5] and in experiment [6] was “Not Active” throughout.
Regarding `CC(=O)S[C@@H]1CC2=CC(=O)CC[C@]2(C)[C@H]2CC[C@@]3(C)[C@@H](CC[C@@]34CCC(=O)O4)[C@H]12` [SPIRONOLACTONE], the IC50 result in [1], in experiment [2], in [3], in experiment [4], in experiment [5] and in experiment [6] was “Not Active” each time. Besides, the IC50 result in experiment [7] (insect cells), in [8], in experiment [9] and in [10] was “Not Active” throughout. Further, the Ki result in experiment [5] and in [6] was “Not Active” each time.
Consider `CC(CCc1ccccc1)NCC(O)c1ccc(O)c(C(N)=O)c1` (centres undefined) [LABETALOL], for which the IC50 result in experiment [1], in experiment [2], in experiment [3], in experiment [4], in experiment [5] and in [6] was “Not Active” throughout. Also, the IC50 result in experiment [7] (insect cells), in experiment [8], in [9] and in experiment [10] was “Not Active” in each case. The Ki result in experiment [5] and in [6] was “Not Active” in each case.
